Results from patent US10889562B2, “Prodrugs of Nrf2 activating compounds and uses thereof” (Rigel Pharmaceuticals, Inc., priority 2018, dated 2021).

Legend:
[1] = Glutathione depletion assay (Michael reaction with reduced glutathione followed by 1H NMR); conditions: 2 equiv. reduced glutathione, d6-DMSO, 35° C.
Source text: Accordingly, the present compounds may be assessed in vitro by reaction with glutathione as follows:
(with the top securely fastened).
In all the above cases, dis-appearance of the alkene proton signals from the starting material are used to determine the extent of Michael reaction with glutathione.
As would be understood by those of skill in the art, the above experiments can be repeated by varying the equivalents of reduced glutathione (0.5 to 2 equivalents); the reactions can also be run in a mixture of d6-DMSO and D2O; and the temperature of the reaction can also be varied from room temperature to 35° C. (35° C. being used to mimic body temperature). As used herein “majority reaction” means a greater than 50% reduction in alkene proton signal as observed by ^1H NMR.

[2] = system: NrF2 (Nuclear factor (erythroid-derived 2)-like 2); assay: NrF2 activation in a whole cell nuclear translocation assay; type: cell-based
Protocol: Compounds are tested in a NrF2 (Nuclear factor (erythroid-derived 2)-like 2) translocation assay by adapting the methods set forth in U.S. Pat. No. 8,101,373, the disclosure of which is incorporated herein by reference. A result of NrF2 activation in the assay by the present compounds is an indication of their anti-inflammatory activity.
In addition to monomethyl fumarate and dimethyl fumarate, bardoxolone methyl may be used as a positive control.

[3] = system: experimental autoimmune encephalomyelitis (EAE); assay: Experimental autoimmune encephalomyelitis (EAE) animal model; type: in vivo, mice (C57BL/6); conditions: mice, dosed at 60 mg/kg beginning on the day of immunization

EC50 [2] [µM]	SMILES	time to majority reaction with glutathione (greater than 50% reduction in alkene proton signal by 1H NMR) [1] [h]	onset of disease paralysis [3]
–	COC(=O)/C=C/n1nnn(C)c1=O [methyl (E)-3-(4-methyl-5-oxo-4,5-dihydro-1H-tetrazol-1-yl)acrylate]	≤ 30	–
~127	COC(=O)/C=C/C(=O)O [monomethylfumarate]	–	–
–	COC(=O)/C=C/n1nn[nH]c1=O [methyl (E)-3-(5-oxo-4,5-dihydro-1H-tetrazol-1-yl)acrylate]	≤ 30	significantly prevents the onset of disease paralysis
